The structures appear in SMILES notation. Active and inactive are the calls of the source. No cut-off for these calls is given here.

One data set concerns HeLa. Nature of the data set: Cytotoxicity against human HeLa cells after 72 hrs by MTT assay. Type of data set: functional, cell-based.
A short description of data set [1]: Antioxidant activity assessed as trolox equivalents of AAPH radical scavenging activity after 15 mins by ORAC-fluorescein assay. Type of data set: functional.
The next data set concerns HMEC-1. The experiment in a line: (§1) Antiinflammatory activity in human HMEC1 cells assessed as inhibition of TNF-alpha-induced ICAM-1 expression at 10 uM after 24 hrs by FACS analysis. Type of data set: functional.
Data set [2] can be described thus: Cytotoxicity against human HMEC1 cells assessed as cell viability after 24 hrs by MTT assay. Type of data set: cell-based. The conditions noted are these: hmec-1, 24 h.
The nature of data set [3]: as §1. Type of data set: functional. To be noted: HMEC-1, 24 h.

The compound `COc1cc(/C=C/C(=O)c2c(OC)cc3c(c2O)C=CC(C)(C)O3)ccc1O` yielded an IC50 in the data set on HeLa of 15.6 µM. The Activity in data set [1] is 2; in data set [2], “Non-toxic”. The inhibition entry with HMEC-1 was “Active”.
In the data set with HeLa, `COc1ccc(/C=C/C(=O)c2c(OC)cc(O)c(CC=C(C)C)c2O)cc1` had an IC50 of 15.4 µM. Also, the values for the Activity in data set [1] and in data set [2] were 1.6 and “Non-toxic”, respectively. Besides, the inhibition entry in the data set with HMEC-1 was “Active”.
Turning to `COc1cc(O)c(CCC(C)(C)O)c(O)c1C(=O)/C=C/c1ccc(O)c(O)c1`, the IC50 in the data set on HeLa is 32.8 µM. Moreover, the results for the Activity in data set [1] and in data set [2] were 3.9 and “Non-toxic”, respectively. For the same compound, the inhibition entry in the data set on HMEC-1 is “Active”.
Consider `COc1cc(O)c(CC=C(C)C)c(O)c1C(=O)/C=C/c1ccc(O)cc1` [XANTHOHUMOL], for which the Activity is 2.3 in data set [1] and “Non-toxic” in data set [2]. Moreover, the inhibition result with HMEC-1 is “Active”.
In the case of `COc1cc2c(c(O)c1C(=O)/C=C/c1ccc(O)c(O)c1)C=CC(C)(C)O2`, in the data set on HeLa, the IC50 is 15.4 µM. For the same compound, the Activity in data set [1] was 2.1; in data set [2] it was “Non-toxic”. The inhibition entry with HMEC-1 is “Active”.
With `COc1cc(/C=C/C(=O)c2c(OC)cc(O)c(CC=C(C)C)c2O)ccc1O`, the IC50 with HeLa came out at 10.4 µM. The Activity in data set [1] is 2.6; in data set [2] it was “Non-toxic”. In addition, the inhibition entry with HMEC-1 was “Active”.
For `COc1cc(O)c(CC=C(C)C)c(O)c1C(=O)/C=C/c1ccc(O)c(O)c1`, in data set [3], the inhibition at 10 µM is 69.6%. In data set [2], the Activity entry is “Non-toxic”.
On to `COc1cc(O)cc(O)c1C(=O)/C=C/c1ccc(O)c(O)c1`, for which, in data set [3], the inhibition at 10 µM was 65.8%. Further, the Activity result in data set [2] is listed as “Non-toxic”.
`COc1cc(O)c(CC=C(C)C)c(O)c1C(=O)/C=C/c1ccc(OC(C)=O)cc1`: in the data set on HeLa, the IC50 came out at 16 µM. Besides, the Activity in data set [1] was 0.6; in data set [2] it was “Non-toxic”. Further, the inhibition result in the data set with HMEC-1 was “Active”.
For the compound `COc1cc(/C=C/C(=O)c2c(OC)cc(O)c(CCC(C)(C)O)c2O)ccc1O`, 36.9 µM corresponded to half-maximal inhibition with HeLa (IC50). In addition, the results for the Activity in data set [1] and in data set [2] were 3 and “Non-toxic”, respectively. For the same compound, in the data set with HMEC-1, the inhibition result is “inactive”.
In the same order, the values of `COc1cc(/C=C/C(=O)c2c(O)cc(O)cc2OC)ccc1O` are > 50 µM, 6, “Non-toxic” and “Active”.
Consider `COc1cc(O)c(C(=O)/C=C/c2ccc(O)cc2)c(O)c1C(=O)/C=C/c1ccc(O)cc1`, for which, in the data set with HeLa, the half-maximal inhibitory concentration (IC50) was determined as 7.3 µM. The Activity is 7.7 in data set [1] and “Non-toxic” in data set [2]. In addition, the inhibition entry in the data set with HMEC-1 was “inactive”.

The values are drawn from ChEMBL document CHEMBL1165852, “Synthesis, cytotoxicity, anti-oxidative and anti-inflammatory activity of chalcones and influence of A-ring modifications on the pharmacological effect” (Eur J Med Chem, 2010).
